Assays:
[1] = system: HeLa cells; test: Cytotoxicity assay (thiazolyl blue tetrazolium bromide), HeLa; assay type: cell-based, human; conditions: even at 100 μM, 24 h
Method: (§1) HEK293 and HeLa cells were purchased from ATCC, and HT22 cells were purchased from Sigma-Aldrich. They were cultured in Dulbecco's modified Eagle's medium (Thermo Fisher Scientific, 11965092) with 10% fetal bovine serum (Thermo Fisher Scientific, 26140079) and 1% penicillin-streptomycin at 37° C. in a humidified incubator with 5% CO2. After 1 day of cell culture, cells were seeded onto 96-well plates with a density of 5000 cells in each well and cultured for another 24 h. Then, HMPQ with different concentrations was added and treated for 24 h. After incubating with 20 μL of thiazolyl blue tetrazolium bromide (5 mg/mL in PBS buffer; Sigma-Aldrich) for 4 h, supernatants were removed, and 100 μL of DMSO was added to dissolve formazan. After shaking for 5 min in darkness, a Multiskan FC microplate was used to measure absorbance at 570 nm.

[2] = system: HEK293 cells; test: Cytotoxicity assay (thiazolyl blue tetrazolium bromide), HEK293; assay type: cell-based, human; conditions: even at 100 μM, 24 h
Method: as §1

[3] = system: c-myc G4; test: CD spectroscopy of c-myc G4 with HMPQ; assay type: binding
Method: (§2) CD spectra of G4s with HMPQ were recorded on a Chirascan CD spectrometer at room temperature from 220 nm to 320 nm under liquid mode. A 1 mm-path-length quartz cuvette was used with a 400 μL sample. Each G4 sample was prepared at the same concentration of 15 μM. The compound was mixed with G4s at a molar ratio of 1:10. Each test was scanned three times, and the background of the buffer was subtracted.

[4] = system: G4s in HeLa cells; test: Confocal cell imaging, co-localization with G4-specific antibody BG4; assay type: cell-based, human
Method: HeLa cells were seeded onto a 12-well plate with coverslips at 37° C. and 5% CO2 for 1 day and incubated with HMPQ at 10 μM overnight. The next day, cells were fixed with 4% paraformaldehyde for 15 min at room temperature and then permeabilized with 0.2% Triton X-100 in PBS for another 10 min. G4-specific antibodies BG4 (Sigma-Aldrich, cat. no. MABE 1126) were added at 1:500 dilution for staining and incubated overnight at 4° C. Cells were washed three times with PBS and then incubated with secondary antibodies (Alexa 647 anti-rabbit for G4) at 1:1000 dilution for 1 h at room temperature. After washing the cells with PBS three times to remove excess secondary, the cells were incubated with DAPI for 5 min and washed with PBS once. The cells on slides were then air dried, mounted onto a Hydromount medium, and observed using a Leica SP8 confocal microscope.

[5] = system: c-kit2 (SEQ ID NO: 3) DNA G4; test: Photoluminescence test of HMPQ with c-kit2 G4 (turn-on, Stern-Volmer plot, LOD); assay type: binding
Method: Single DNA nucleotides were purchased from Integrated DNA Technologies. The DNA sample at 100 μM (single strands) was then re-annealed by heating to 95° C. for 15 min, followed by slow cooling to room temperature overnight in an annealing buffer of 70 mM KCl and 20 mM potassium phosphate (pH 7.0). The final NMR samples contained 0.1 mM DNA or RNA in 20 mM potassium phosphate buffer (pH 7.0) and 70 mM KCl.
The intriguing conformational change observed in HMPQ led to exceptional emission performance, prompting us to explore its application as a fluorescent probe. The inherent two-planar aromatic rings of HMPQ offer the potential for interaction with the guanine tetrad or conjugation with side chains of novel nucleic acid secondary structures, G4s^45,46. To evaluate the binding affinity of HMPQ, a series of photoluminescence tests was conducted using various G4 samples introduced with HMPQ (Table 5).
To delve deeper into the sensitivity of HMPQ as a fluorescent G4 probe, the PL spectra of HMPQ (0.15 mM) were obtained with varying concentrations of c-kit2, as illustrated in FIG. 5B. […] According to the equation for limit of detection (LOD), LOD=3 SB/m (SB=the standard deviation of the repeated 10 blank measurements, and m=the slope of the relative intensity over […]), it was calculated as 28.7 nM^49,50. […]

[6] = system: immortalized mouse hippocampal neuronal cells HT22; test: Cytotoxicity assay (thiazolyl blue tetrazolium bromide), HT22; assay type: cell-based; conditions: even at 100 μM, 24 h
Method: as §1

[7] = system: regular double-stranded or single-stranded, or hairpin-structure nucleotides; test: Photoluminescence and NMR titration with non-G4 oligonucleotides; assay type: binding
Text: Conventional fluorescent probes rely on hydrophobic aromatic rings and π-conjugated chromophores^22. However, their tendency to aggregate in hydrophobic pockets upon binding to nucleic acid strands in aqueous environments often results in the quenching of emitted light. Conversely, AIEgens excel in aqueous media, evading aggregation-caused quenching. […] In embodiments, binding to G4s restricts the mobility of HMPQ molecules, leading to a significant enhancement in fluorescence intensity. CD spectra confirm that HMPQ maintains the original conformation of G4s and its high biocompatibility enables visualization of G4s within the cellular nucleus.
To verify whether the compounds interacted with G4 DNA, we performed NMR titration experiments by running 1D ^1H NMR spectra at 25° C. All compounds were dissolved in isotope-labelled d6-DMSO (from Sigma-Aldrich) at about 50 mM concentration as stock solutions. To avoid chemical shifts of G4 samples resulting from d6-DMSO addition, 10 μL of d6-DMSO was added into 500 μL of 0.1 mM G4 solution in the NMR buffer (20 mM potassium phosphate buffer and 70 mM KCl, pH 7.0, 10% D2O). Then, a 1D ^1H-NMR spectrum was obtained as a reference. […]
In addition to fluorescence spectroscopy tests, we performed NMR titration as another prevalent method for assessing binding affinity. […]

[8] = Absolute quantum yield of HMPQ in different states; assay type: physicochemical; conditions: for Quantum Yield (%): excitation 320 nm
Method: Streptomyces chrestomyceticus BCC24770 was acquired from the Thailand Bioresource Research Centre. All oligonucleotides used were bought from Integrated DNA Technologies company (Singapore). NMR spectra were recorded on a 500 M or 800 M Varian spectrometer at 25° C. HRMS data were recorded on a Xevo G2-XS QTOF mass spectrometer from Water's. HPLC analysis or preparation was performed using a Waters HPLC system (Waters 2695 Separations Module; Milford, USA) and monitored under a Waters 2998 Photodiode Array Detector. Semi-preparative HPLC was performed using a Phenomenex Luna C18 column (250 mm×10 mm in size) and designed for a particle size of 5 μm. Single-crystal XRD data were collected on a Rigaku-Oxford Diffraction Supernova Dual Atlas diffractometer. Crystal photos were taken under Nikon ECLIPSE Ts2R fluorescence microscopes. CD spectra were collected using Chirascan Circular Dichroism (CD) Spectrometers. UV-vis absorption spectra were obtained under a Shimadzu UV-2600 spectrophotometer (medium scanning rate and quartz cuvettes of 2 cm path length). Photoluminescence spectra were recorded on an Edinburgh FS5 Spectrofluorometer. Absolute quantum yield was collected using an integrating sphere on a Hamamatsu Quantum Yield Spectrometer C11347 Quantaurus. All digital photographs were recorded on a Canon EOS 7D camera. A Leica SP8 confocal microscope was used for cell imaging.
After observing the strong emission of crystalline-state HMPQ, we studied its photophysical properties in a polymer matrix. HMPQ was dissolved and blended with the common polymer poly(methyl methacrylate) (PMMA)^39. A series of films was prepared by coating mixtures with varying weight percentages (wt %) of HMPQ onto a quartz substrate. The resulting films, containing different wt % of HMPQ, were analysed to measure their photoluminescence (PL) and quantum yield (QY) (FIGS. 3A-3D and 14, Table 2).

[9] = system: c-kit1 G4; test: CD spectroscopy of c-kit1 G4 with HMPQ; assay type: binding
Method: as §2

[10] = system: c-kit2 G4; test: CD spectroscopy of c-kit2 G4 with HMPQ; assay type: binding
Method: as §2

Structure (SMILES): CCC(=O)c1ccc(OC)c(-c2nc3ccccc3c(=O)[nH]2)c1O [HMPQ, 2-(2-hydroxy-6-methoxy-3-propionylphenyl)quinazolin-4(3H)-one]
- cytotoxicity [1]: no cytotoxicity
- cytotoxicity [2]: no cytotoxicity
- effect on original G4 conformation (CD spectrum) [3]: non-disruptive
- penetration of the cell nucleus ([4]; BG4 as control): efficiently penetrated the cell nucleus
- Overlap coefficient ([4]; FIG. 6C legend): 0.943
- overlap coefficient with BG4 ([4]; HMPQ 10 μM overnight): 94.3%
- fluorescence enhancement at 497 nm upon interaction with c-kit2 ([5]; 20 mM KH2PO4 buffer, 70 mM KCl, pH 7.0): around 300 fold
- Stern-Volmer constant m ([5]; HMPQ 0.15 mM, c-kit2 0 μM to 50 μM): 1.94e+06 M⁻¹
- cytotoxicity [6]: no cytotoxicity
- interaction with non-G4 nucleotides [7]: no interaction
- QY ([8]; 30 wt % film (HMPQ in PMMA)): 30.5%
- Quantum Yield (%) ([8]; Film, 1 wt. % HMPQ in PMMA): 25.5%
- Quantum Yield (%) ([8]; Film, 5 wt. % HMPQ in PMMA): 27.9%
- Quantum Yield (%) ([8]; Film, 10 wt. % HMPQ in PMMA): 29.4%
- Quantum Yield (%) ([8]; Film, 20 wt. % HMPQ in PMMA): 30.5%
- Quantum Yield (%) ([8]; Film, 40 wt. % HMPQ in PMMA): 30.0%
- Quantum Yield (%) ([8]; Film, 60 wt. % HMPQ in PMMA): 27.1%
- Quantum Yield (%) ([8]; Film, 100 wt. % HMPQ): 23.0%
- Quantum Yield (%) ([8]; In DMSO Solution, 10^−5 M): 6.7%
- Quantum Yield (%) ([8]; In THF Solution, 10^−5 M): 2.4%
- Quantum Yield (%) ([8]; Solid Powder): 3.9%
- effect on original G4 conformation (CD spectrum) [9]: non-disruptive
- effect on original G4 conformation (CD spectrum) [10]: non-disruptive
